Assay results reported in ChEMBL document CHEMBL1154277, “Discovery of N-substituted pyridinones as potent and selective inhibitors of p38 kinase” (Bioorg Med Chem Lett, 2009).

Columns and labels:
[1] = biological target: Fibroblast growth factor receptor 2 (Homo sapiens) (UniProt P21802); assay: Inhibition of FGFR2 at 10 uM
[2] = biological target: Mitogen-activated protein kinase kinase kinase 8 (Homo sapiens) (UniProt P41279); assay: Inhibition of COT at 10 uM
[3] = biological target: Mitogen-activated protein kinase kinase kinase kinase 4 (Homo sapiens) (UniProt O95819); assay: Inhibition of HGK at 10 uM
[4] = biological target: Mitogen-activated protein kinase 10 (Homo sapiens) (UniProt P53779); assay: Inhibition of JNK3 at 10 uM
[5] = biological target: Glycogen synthase kinase-3 alpha (Homo sapiens) (UniProt P49840); assay: Inhibition of GSK3alpha at 10 uM
[6] = biological target: Glycogen synthase kinase-3 beta (Homo sapiens) (UniProt P49841); assay: Inhibition of GSK3-beta at 10 uM
Chain of Glycogen synthase kinase-3 beta (Homo sapiens) (P49841 whole entry, looked up): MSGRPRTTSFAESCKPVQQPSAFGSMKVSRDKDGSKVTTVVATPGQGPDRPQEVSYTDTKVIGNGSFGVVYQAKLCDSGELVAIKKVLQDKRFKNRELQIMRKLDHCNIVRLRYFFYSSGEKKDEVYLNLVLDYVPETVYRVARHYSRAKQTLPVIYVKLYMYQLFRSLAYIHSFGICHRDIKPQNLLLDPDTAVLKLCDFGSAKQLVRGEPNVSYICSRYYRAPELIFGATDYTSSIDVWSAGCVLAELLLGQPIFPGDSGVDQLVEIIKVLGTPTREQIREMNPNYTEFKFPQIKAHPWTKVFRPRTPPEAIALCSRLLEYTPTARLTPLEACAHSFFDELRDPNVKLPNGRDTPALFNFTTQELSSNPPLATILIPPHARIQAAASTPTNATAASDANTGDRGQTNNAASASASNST

[7] = biological target: Homeodomain-interacting protein kinase 1 (Homo sapiens) (UniProt Q86Z02); assay: Inhibition of HIPK1 at 10 uM
Chain of Homeodomain-interacting protein kinase 1 (Homo sapiens) (Q86Z02 whole entry, looked up): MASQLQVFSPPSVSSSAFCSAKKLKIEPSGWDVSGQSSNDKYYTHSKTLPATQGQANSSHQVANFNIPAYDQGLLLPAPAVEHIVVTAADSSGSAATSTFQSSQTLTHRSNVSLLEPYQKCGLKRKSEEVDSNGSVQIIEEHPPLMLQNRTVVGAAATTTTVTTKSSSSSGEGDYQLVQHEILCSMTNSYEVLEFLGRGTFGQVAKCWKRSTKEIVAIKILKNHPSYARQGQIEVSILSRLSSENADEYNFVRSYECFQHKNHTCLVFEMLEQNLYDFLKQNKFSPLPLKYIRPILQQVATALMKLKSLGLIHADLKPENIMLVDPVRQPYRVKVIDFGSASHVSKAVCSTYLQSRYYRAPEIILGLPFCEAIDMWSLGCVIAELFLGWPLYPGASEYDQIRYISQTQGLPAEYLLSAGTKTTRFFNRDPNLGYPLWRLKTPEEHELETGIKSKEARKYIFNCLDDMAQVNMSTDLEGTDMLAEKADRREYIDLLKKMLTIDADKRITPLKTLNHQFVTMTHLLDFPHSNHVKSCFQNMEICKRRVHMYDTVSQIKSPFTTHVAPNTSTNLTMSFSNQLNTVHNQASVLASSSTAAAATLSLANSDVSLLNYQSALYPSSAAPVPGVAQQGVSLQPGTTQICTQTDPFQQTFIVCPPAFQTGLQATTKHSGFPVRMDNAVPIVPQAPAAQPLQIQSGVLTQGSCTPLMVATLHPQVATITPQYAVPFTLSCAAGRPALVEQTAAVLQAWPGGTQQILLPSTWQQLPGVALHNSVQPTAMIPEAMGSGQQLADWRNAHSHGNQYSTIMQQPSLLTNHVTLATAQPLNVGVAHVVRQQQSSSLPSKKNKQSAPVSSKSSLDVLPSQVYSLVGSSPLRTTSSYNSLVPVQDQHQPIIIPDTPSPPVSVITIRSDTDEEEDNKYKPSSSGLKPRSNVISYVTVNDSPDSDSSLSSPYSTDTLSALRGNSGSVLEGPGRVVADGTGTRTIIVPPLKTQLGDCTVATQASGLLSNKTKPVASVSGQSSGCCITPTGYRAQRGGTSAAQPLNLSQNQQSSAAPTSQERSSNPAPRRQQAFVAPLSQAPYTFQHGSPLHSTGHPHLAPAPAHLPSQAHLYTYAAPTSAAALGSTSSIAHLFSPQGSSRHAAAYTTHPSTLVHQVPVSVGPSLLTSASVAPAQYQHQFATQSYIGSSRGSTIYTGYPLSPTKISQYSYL

[8] = biological target: MAP kinase-activated protein kinase 2 (Homo sapiens) (UniProt P49137); assay: Inhibition of MAPKAPK2 at 10 uM
[9] = tested on: Hepatocyte growth factor receptor (Homo sapiens), P08581 [M1250T]; assay: Inhibition of MET M1250T (mutant) at 10 uM
[10] = biological target: Serine/threonine-protein kinase PAK 5 (Homo sapiens) (UniProt Q9P286); assay: Inhibition of PAK7 at 10 uM
[11] = tested on: Platelet-derived growth factor receptor alpha (Homo sapiens), P16234 [V561D]; assay: Inhibition of PDGFRalpha V561D (mutant) at 10 uM
Chain of Platelet-derived growth factor receptor alpha (Homo sapiens), P16234 [V561D] (P16234 whole entry V561D): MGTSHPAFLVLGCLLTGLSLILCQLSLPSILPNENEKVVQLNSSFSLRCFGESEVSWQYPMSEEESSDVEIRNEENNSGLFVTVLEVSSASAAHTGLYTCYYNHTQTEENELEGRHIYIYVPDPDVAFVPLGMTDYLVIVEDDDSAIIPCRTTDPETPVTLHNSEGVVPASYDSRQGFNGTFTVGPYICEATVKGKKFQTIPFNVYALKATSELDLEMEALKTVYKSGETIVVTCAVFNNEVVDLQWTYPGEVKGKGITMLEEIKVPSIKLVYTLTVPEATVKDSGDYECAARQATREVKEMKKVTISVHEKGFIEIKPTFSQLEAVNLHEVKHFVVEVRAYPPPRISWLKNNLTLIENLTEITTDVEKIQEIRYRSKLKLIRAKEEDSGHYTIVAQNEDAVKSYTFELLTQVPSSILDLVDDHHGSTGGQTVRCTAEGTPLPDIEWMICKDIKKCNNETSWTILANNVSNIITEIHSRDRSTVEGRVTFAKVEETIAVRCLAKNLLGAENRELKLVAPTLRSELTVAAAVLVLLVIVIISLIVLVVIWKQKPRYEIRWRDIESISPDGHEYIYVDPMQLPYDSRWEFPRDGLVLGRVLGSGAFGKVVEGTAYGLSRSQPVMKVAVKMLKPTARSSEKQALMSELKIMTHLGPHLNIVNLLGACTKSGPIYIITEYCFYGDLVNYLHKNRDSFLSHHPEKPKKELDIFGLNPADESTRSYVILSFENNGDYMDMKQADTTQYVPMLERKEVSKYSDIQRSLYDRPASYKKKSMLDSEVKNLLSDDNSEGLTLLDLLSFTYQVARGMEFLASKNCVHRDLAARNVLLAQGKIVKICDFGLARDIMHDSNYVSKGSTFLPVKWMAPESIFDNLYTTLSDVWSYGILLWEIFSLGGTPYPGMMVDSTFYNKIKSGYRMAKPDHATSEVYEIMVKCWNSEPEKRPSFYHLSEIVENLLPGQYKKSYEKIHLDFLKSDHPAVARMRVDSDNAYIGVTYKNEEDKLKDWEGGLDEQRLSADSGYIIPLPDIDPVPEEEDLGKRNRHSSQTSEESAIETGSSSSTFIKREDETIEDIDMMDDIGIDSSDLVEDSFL

[12] = biological target: Protein kinase C beta type (Homo sapiens) (UniProt P05771); assay: Inhibition of PKCbeta1 at 10 uM
[13] = biological target: cAMP-dependent protein kinase catalytic subunit PRKX (Homo sapiens) (UniProt P51817); assay: Inhibition of PRKX at 10 uM
Chain of cAMP-dependent protein kinase catalytic subunit PRKX (Homo sapiens) (P51817 whole entry): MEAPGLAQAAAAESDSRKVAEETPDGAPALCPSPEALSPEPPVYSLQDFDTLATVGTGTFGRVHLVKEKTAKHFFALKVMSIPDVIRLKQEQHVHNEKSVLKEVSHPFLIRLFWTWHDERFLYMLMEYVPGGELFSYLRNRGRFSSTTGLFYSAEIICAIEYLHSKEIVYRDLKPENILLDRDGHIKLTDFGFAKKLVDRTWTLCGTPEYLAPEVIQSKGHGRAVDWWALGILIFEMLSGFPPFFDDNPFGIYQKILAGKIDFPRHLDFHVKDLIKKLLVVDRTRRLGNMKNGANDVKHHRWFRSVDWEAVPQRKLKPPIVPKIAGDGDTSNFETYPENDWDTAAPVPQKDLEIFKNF

[14] = biological target: RAF proto-oncogene serine/threonine-protein kinase (Homo sapiens) (UniProt P04049); assay: Inhibition of cRAF at 10 uM
[15] = biological target: SRSF protein kinase 1 (Homo sapiens) (UniProt Q96SB4); assay: Inhibition of SRPK1 at 10 uM
[16] = biological target: Testis-specific serine/threonine-protein kinase 1 (Homo sapiens) (UniProt Q9BXA7); assay: Inhibition of TSSK1 at 10 uM
Chain of Testis-specific serine/threonine-protein kinase 1 (Homo sapiens) (Q9BXA7 whole entry): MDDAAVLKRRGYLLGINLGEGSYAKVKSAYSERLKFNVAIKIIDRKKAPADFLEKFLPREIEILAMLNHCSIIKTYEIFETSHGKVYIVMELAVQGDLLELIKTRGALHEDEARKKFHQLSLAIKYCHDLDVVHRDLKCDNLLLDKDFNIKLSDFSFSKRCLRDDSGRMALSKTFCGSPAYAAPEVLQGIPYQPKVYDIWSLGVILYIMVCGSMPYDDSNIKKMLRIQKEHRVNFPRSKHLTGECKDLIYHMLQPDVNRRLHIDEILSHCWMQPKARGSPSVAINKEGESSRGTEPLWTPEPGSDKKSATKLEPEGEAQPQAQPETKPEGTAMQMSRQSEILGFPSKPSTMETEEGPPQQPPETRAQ

[17] = biological target: Tyrosine-protein kinase Yes (Homo sapiens) (UniProt P07947); assay: Inhibition of YES1 at 10 uM
Chain of Tyrosine-protein kinase Yes (Homo sapiens) (P07947 2-543 limits assumed): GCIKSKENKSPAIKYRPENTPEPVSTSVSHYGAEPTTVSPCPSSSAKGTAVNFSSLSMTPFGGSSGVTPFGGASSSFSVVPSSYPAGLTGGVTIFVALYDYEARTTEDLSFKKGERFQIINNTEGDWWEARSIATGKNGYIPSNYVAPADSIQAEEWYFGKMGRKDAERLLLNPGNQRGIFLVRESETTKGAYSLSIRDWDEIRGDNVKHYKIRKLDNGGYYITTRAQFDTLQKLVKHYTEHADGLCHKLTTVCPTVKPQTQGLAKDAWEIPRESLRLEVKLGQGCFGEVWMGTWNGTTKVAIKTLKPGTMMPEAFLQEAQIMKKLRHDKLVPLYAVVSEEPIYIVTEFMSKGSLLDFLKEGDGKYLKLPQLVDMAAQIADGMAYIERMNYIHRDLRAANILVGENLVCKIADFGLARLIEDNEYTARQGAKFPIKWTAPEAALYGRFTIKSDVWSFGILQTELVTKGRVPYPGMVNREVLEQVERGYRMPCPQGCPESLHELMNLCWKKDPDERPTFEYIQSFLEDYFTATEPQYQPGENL

[18] = tested on: Rattus norvegicus; assay: Antiinflammatory activity in Lewis rat strep cell wall model assessed as inhibition of chronic paw swelling at 60 mg/kg; assay type: functional
[19] = biological target: Cyclin-dependent kinase 7/ cyclin H (Homo sapiens) (UniProt P51946+P50613); assay: Inhibition of CDK7/cyclin H/MNAT1 at 10 uM; assay type: protein-complex assay
[20] = biological target: Serine/threonine-protein kinase haspin (Homo sapiens) (UniProt Q8TF76); assay: Inhibition of GSG2 at 10 uM
Chain of Serine/threonine-protein kinase haspin (Homo sapiens) (Q8TF76 whole entry): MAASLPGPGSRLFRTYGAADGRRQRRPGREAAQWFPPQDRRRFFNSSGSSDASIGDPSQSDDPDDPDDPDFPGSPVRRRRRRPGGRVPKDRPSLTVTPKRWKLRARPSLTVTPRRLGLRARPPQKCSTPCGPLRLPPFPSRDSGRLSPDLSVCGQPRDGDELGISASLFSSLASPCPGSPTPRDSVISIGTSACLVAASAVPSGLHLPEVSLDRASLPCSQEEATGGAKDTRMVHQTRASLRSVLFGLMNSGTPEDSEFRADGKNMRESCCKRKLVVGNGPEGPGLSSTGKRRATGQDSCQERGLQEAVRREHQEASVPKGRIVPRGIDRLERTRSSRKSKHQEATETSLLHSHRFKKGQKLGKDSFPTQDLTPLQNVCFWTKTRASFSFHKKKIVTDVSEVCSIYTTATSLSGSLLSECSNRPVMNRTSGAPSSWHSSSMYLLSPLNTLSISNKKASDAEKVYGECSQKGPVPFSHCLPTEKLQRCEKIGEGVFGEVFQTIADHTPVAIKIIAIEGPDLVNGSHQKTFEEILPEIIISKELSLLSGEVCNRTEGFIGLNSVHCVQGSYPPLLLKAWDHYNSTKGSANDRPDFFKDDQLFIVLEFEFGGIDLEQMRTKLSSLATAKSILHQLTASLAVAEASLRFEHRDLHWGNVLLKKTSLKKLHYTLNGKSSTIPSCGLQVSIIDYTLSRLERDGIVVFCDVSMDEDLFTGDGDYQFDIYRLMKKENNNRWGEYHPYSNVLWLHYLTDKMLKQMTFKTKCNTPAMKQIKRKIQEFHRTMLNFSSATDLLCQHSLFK

[21] = tested on: Tyrosine-protein kinase ABL1 (Homo sapiens), P00519 [G250E]; assay: Inhibition of ABL1 G250E (mutant) at 10 uM
[22] = biological target: G protein-coupled receptor kinase 3 (Homo sapiens) (UniProt P35626); assay: Inhibition of GRK3 at 10 uM
[23] = biological target: Casein kinase I isoform gamma-3 (Homo sapiens) (UniProt Q9Y6M4); assay: Inhibition of CK1gamma3 at 10 uM
[24] = biological target: Death-associated protein kinase 3 (Homo sapiens) (UniProt O43293); assay: Inhibition of ZIPK at 10 uM
[25] = biological target: Epidermal growth factor receptor (Homo sapiens) (UniProt P00533); assay: Inhibition of EGFR at 10 uM

Cc1cc(OCc2ccc(F)cc2F)c(Br)c(=O)n1Cc1ccc(CN(C)C)cc1
88%: inhibition in vivo at 60 mg/kg [18]
< 50%: inhibition [1] | inhibition [2] | inhibition [3] | inhibition [4] | inhibition [5] | inhibition [6] | inhibition [7] | inhibition [8] | inhibition [9] | inhibition [10] | inhibition [11] | inhibition [12] | inhibition [13] | inhibition [14] | inhibition [15] | inhibition [16] | inhibition [17] | inhibition [19] | inhibition [20] | inhibition [21] | inhibition [22] | inhibition [23] | inhibition [24] | inhibition [25]
